In patent US10156564B1, “Methods of detecting biomarkers of endoplasmic reticulum (ER) stress-associated kidney diseases” (Washington University, priority 2016, dated 2018):
“Also recorded” adds a separate entry of the source.

Tests used:
mouse primary podocytes = experiment: CRELD2 expression in mouse primary podocytes treated with ER stress inducers (WB, immunofluorescence); format: cell-based; details: for CRELD2 immunofluorescence in podocytes: TM 2 μg/ml or TG 1 μM for 24 h, overlapped with BiP; for CRELD2 expression in cell lysates (WB): TM 2 μg/ml or TG 1 μM for 24 h vs DMSO vehicle
Experimental: FIG. 9A is an image of a Western blot showing mouse primary podocytes were treated with DMSO (control), tunicamycin (TM) (2 μg/ml) or thapsigargin (TG) (1 μM) for 24 h. Cell lysates were analyzed by WB with the indicated antibodies. TM and TG are ER stress inducers.
FIG. 9B is a series of images showing control and TM- or TG-treated mouse podocytes, as described in FIG. 9A stained for CRELD2 (red) and BiP (green). Nuclei were counterstained with Hoechst 33342 (blue). Scale bar, 40 μm.
CRELD2 is a urinary biomarker for detecting podocyte ER stress in the early stages of podocyte ER stress-induced nephrotic syndrome (NS) in mice. Initial experiments (see e.g., Example 2) determined ER stress increases CRELD2 expression and secretion in mouse primary podocytes. Mouse podocytes were treated for 24 h with tunicamycin (TM), which activates ER stress by blocking N-linked glycosylation in the ER (26), or TG, which depletes ER calcium through inhibition of ER calcium ATPase (27). […] The effects of ER stress on CRELD2 secretion were also examined.
Isolated glomeruli from Lamb2^+/−, Lamb2^−/−; Tg-C321R and Lamb2^−/−; Tg-WT mice at P27 were suspended in DMEM/Ham's F-12 (2:1) that contained 0.45 μm-filtered 3T3-L1 supernatant, 5% heat inactivated FBS, ITS (Insulin-Transferrin-Sodium Selenite) liquid media supplement, and 100 U/ml penicillin-streptomycin; plated onto collagen type I-coated petri dishes; and incubated at 37° C. in room air with 5% CO2. After 3 days, cell colonies began to sprout around the glomeruli. […] Only passages 1-2 podocytes from the indicated genotypes were used in the in vitro studies.
For immunocytochemistry, mouse primary podocytes were seeded on cover slips coated with 5 μg/ml rat collagen I that was dissolved in 0.02M acetic acid in 24 well plates for 48 hours. After 24 hours treatment with DMSO, TM or TG, the cells were fixed with 4% PFA for 20 minutes and permeabilized with 1% Triton X-100 for 5 minutes at room temperature, blocked with 1% BSA for 30 minutes at room temperature, followed by incubation with goat anti-mouse CRELD2 (R&D) and rabbit anti-mouse BiP antibodies for an additional 1 hour at room temperature. The cover slips were washed with PBS and incubated with the corresponding Alexa 594- or Alexa 488-conjugated secondary antibodies and Hoechst 33342 to stain nuclei. The cover slips were then mounted with anti-quench solution and visualized using a fluorescence microscope (Nikon).
Isolated mouse glomeruli and cultured mouse primary podocytes were lysed by RIPA buffer (Sigma) containing protease inhibitor cocktail (Roche, Indianapolis, Ind.). TM untreated- and treated-kidneys, as well as sham-operated and I/R-injured kidneys, were extracted using the same lysis buffer with the protease inhibitors and homogenized by sonication. The protein concentrations of cell, glomerular and kidney lysates were determined by Bio-Rad protein assay (Hercules, Calif.) using BSA as a standard. Denatured proteins were separated on SDS polyacrylamide gel electrophoresis (SDS-PAGE) and then transferred to PVDF membranes. Blots were blocked with 5% non-fat milk for 1 hour and then incubated overnight with primary antibodies. The membranes were washed with Tris-buffered saline/TWEEN® (polysorbate) buffer and incubated with the appropriate HRP-conjugated secondary antibodies. […] Relative intensities of protein bands were quantified using ImageJ (NIH) analysis software.

C57BL/6J mice [1] = details: cited from earlier work
C57BL/6J mice [2] = experiment: TM-induced AKI mouse model (kidney and urine CRELD2/BiP, histology); format: in vivo; details: for BiP in ER stressed-tubular cells (immunofluorescence): 1 day and 5 days post TM injection (FIG. 19); for urinary CRELD2 excretion (WB): urine within 24 hours after TM 1 mg/kg IP vs vehicle; for BiP in urine (immunodetection): within 24 hr from TM injection, no obvious histological changes of kidney injury (FIG. 20)
Experimental: FIG. 10A is a bar graph showing quantitative RT-PCR analysis of relative transcript levels of CRELD2 in kidneys at the indicated time points following TM injection (1 mg/kg, IP) as compared to DMSO vehicle-injected controls. Absolute levels were normalized first to those of GAPDH and then to the levels in the control kidneys (mean±SD). **P<0.01 and ***P<0.001 by ANOVA (n=3 mice per group).
FIG. 10B is a series of images showing dual IF staining for CRELD2 (green) and LTL (red) on paraformaldehyde-fixed, sucrose-cryoprotected kidney sections from mice treated with vehicle or TM (1 mg/kg) at the indicated time points. Nuclei were counterstained with Hoechst 33342 (blue). G: glomerulus. Scale bars, 40 μm.
FIG. 10C is a Western blot showing whole-kidney lysates from mice treated with or without TM (1 mg/kg) at different time points were analyzed by WB for levels of CRELD2 and β-actin.
FIG. 10E is an image of a Western blot showing the detection of urinary CRELD2 within 1 day of TM injection. Urines were collected for 24 hours after the mice were injected with vehicle or 1 mg/kg TM (IP). Crude urine samples from mice treated with vehicle (n=8) or TM (n=8) were analyzed by WB for CRELD2 excretion. The urinary CRELD2 excretion was normalized to 2 μg of urine Cr excretion.
Intraperitoneal (IP) injection of TM in mice is a well characterized AKI model caused by renal proximal tubular ER stress (29). […] In comparison, glomeruli and other organs are spared (21, 29).
TM was dissolved in DMSO at 2 mg/ml, and injected intraperitoneally at 1 mg/kg into 6-10 weeks old C57BL/6J mice. Urine was collected from metabolic cages in which the mice were immediately placed after the injection. 1 day or 5 days after the injection, sera were obtained, and kidneys were harvested. One kidney was snap frozen in dry ice and stored at −70 C until further processing for protein and RNA. The other kidney was fixed in 4% paraformaldehyde (PFA) (pH 7.4) at 4 C and then transferred to 15% and 30% sucrose/PBS for OCT-embedded cryosections.
For dual staining of CRELD2 with biotinylated LTL in mouse kidneys, […]. After dewaxing, PFA-fixed, sucrose-cryoprotected kidney sections from control or TM-treated mice were subjected to antigen retrieval by immersion in 10 mM citric acid buffer (pH 6.0) for 5 minutes at 95 C. […] Nonspecific avidin binding was blocked by an avidin/biotin blocking kit (Vector laboratories) before incubating kidney sections with 1% BSA for 30 minutes at room temperature. The slides were stained with a goat anti-mouse CRELD2 antibody (R&D) together with biotinylated LTL overnight at 4° C., followed by an Alexa 488-conjugated anti-goat secondary antibody and Alexa 594-conjugated streptavidin as well as Hoechst 33342. For CRELD2 staining in sham-operated and post-ischemic kidneys, the fluorescent signal was further amplified using a Fluorescein tyramide amplification kit (Perkin-Elmer, Waltham, Mass.) according to the manufacturer's instructions. Slides were analyzed under a fluorescence microscope (Nikon).
Isolated mouse glomeruli and cultured mouse primary podocytes were lysed by RIPA buffer (Sigma) containing protease inhibitor cocktail (Roche, Indianapolis, Ind.). TM untreated- and treated-kidneys, as well as sham-operated and I/R-injured kidneys, were extracted using the same lysis buffer with the protease inhibitors and homogenized by sonication. The protein concentrations of cell, glomerular and kidney lysates were determined by Bio-Rad protein assay (Hercules, Calif.) using BSA as a standard. Denatured proteins were separated on SDS polyacrylamide gel electrophoresis (SDS-PAGE) and then transferred to PVDF membranes. Blots were blocked with 5% non-fat milk for 1 hour and then incubated overnight with primary antibodies. The membranes were washed with Tris-buffered saline/TWEEN® (polysorbate) buffer and incubated with the appropriate HRP-conjugated secondary antibodies. […]

Row | Compound | CRELD2 immunofluorescence in podocytes (mouse primary podocytes) | CRELD2 expression in cell lysates (WB) (mouse primary podocytes) | ER stress response genes including BiP, CHOP, MANF and EDEM (C57BL/6J mice [1]; day 1 after TM injection) | renal function and histology (C57BL/6J mice [1]; day 1 after TM injection) | renal histology after IP injection of TM (C57BL/6J mice [1]; peaks between 4 and 5 days after injection, glomeruli and other organs spared) | CRELD2 in ER-stressed proximal tubular cells (marked by LTL) (C57BL/6J mice [2]; 1 day and 5 days post TM injection (FIG. 4)) | BiP in ER stressed-tubular cells (immunofluorescence) (C57BL/6J mice [2]) | BiP in ER stressed-tubular cells (immunofluorescence) (C57BL/6J mice [2]; listed as tunicamycin) | CRELD2 immunostaining in proximal tubules (co-IF with LTL) (C57BL/6J mice [2]; 5 days post-injection, TM 1 mg/kg IP) | CRELD2 induction in glomeruli (IF) (C57BL/6J mice [2]; TM-injected kidneys, 1 mg/kg IP) | BiP in kidney lysates (immunodetection) (C57BL/6J mice [2]; TM-injected mice (FIG. 18)) | CRELD2 in kidney lysates (immunodetection) (C57BL/6J mice [2]; TM-injected mice, time not stated (FIG. 3)) | CRELD2 transcript levels in whole-kidney lysates (RT-PCR) (C57BL/6J mice [2]; day 1 after TM 1 mg/kg IP vs DMSO vehicle or day 5) | CRELD2 immunostaining in proximal tubules (co-IF with LTL) (C57BL/6J mice [2]; day 1 following TM 1 mg/kg IP vs controls) | CRELD2 protein expression in kidneys (WB) (C57BL/6J mice [2]; day 1 vs controls or day 5 post-injection, TM 1 mg/kg IP) | urinary CRELD2 excretion (WB) (C57BL/6J mice [2]) | urinary CRELD2 excretion (WB) (C57BL/6J mice [2]; listed as tunicamycin) | BiP in urine (immunodetection) (C57BL/6J mice [2]) | BiP in urine (immunodetection) (C57BL/6J mice [2]; listed as tunicamycin) | form of CRELD2 expressed (WB) (mouse primary podocytes; TM 2 μg/ml, 24 h)
1 | C/C=C(/C)C(=O)O[C@H]1C(C)=C2[C@H]([C@@H]1OC(=O)CCCCCCC)[C@@](C)(OC(C)=O)C[C@H](OC(=O)CCC)[C@@]1(O)[C@H]2OC(=O)[C@@]1(C)O [TG, thapsigargin] | upregulated | induced expression of CRELD2 | – | – | – | – | – | – | – | – | – | – | – | – | – | – | – | – | – | –
2 | tunicamycin [TM] | upregulated | induced expression of CRELD2 | upregulated | normal renal function and the absence of conspicuous histologic changes | extensive tubular dilation, epithelial flattening, tubular basement membrane denudation and loss of brush borders in proximal tubules | upregulated | upregulated | upregulation | subsided | did not exhibit CRELD2 induction | induced | induced | significantly increased | substantially upregulated | higher | can be detected; also recorded: dramatically increased | immunodetection of CRELD2 in the urine | detected | immunodetection of BiP in urine | underglycosylated form of CRELD2
